# Source: patent US20230276831A1, “Food/Beverage Article” (Kikkoman Corporation, priority 2020, published 2023)
# Tested on: Lactobacillus rennini (DSM 20253)
# Assay: Antimicrobial action of licoricidin in soy sauce at various pH (Test Example 5)
# Type: cell-based
# Design: key: A: The bacterial count decreases to less than 10% of the bacterial count of the control group.; B: The bacterial count decreases to 10% or more and less than 50% of the bacterial count of the control group.; C: The bacterial count decreases to 50% or more and less than 100% of the bacterial count of control group.; D: The bacterial count is the same as the bacterial count of the control group
# Settings: salt 4% (w/v)
# Description: Commercially available whole soybean soy sauce (produced by Kikkoman Corporation) was electrodialyzed and then concentrated under reduced pressure to obtain soy sauce at a salt concentration of 0% (w/v) and an alcohol concentration of 0% (v/v). Then, salt and/or alcohol was added to the above-mentioned obtained soy sauce, and hydrochloric acid or an aqueous sodium hydroxide solution was then added to adjust the pH to a desired pH. Germfree purified water was added, and the mixture was then heat-treated to produce soy sauce at the salt concentration, the alcohol concentration, and the pH shown in the following Table 17.
# Licoricidin (produced by ChemFaces) was added to each of the obtained soy sauces to concentrations of 1 ppm, 5 ppm, 10 ppm, 25 ppm, and 50 ppm. Lactic acid bacteria (Lactobacillus rennini (DSM 20253)) were then added to 10^6 to 10^7 cells/mL and cultured at 30° C. for 7 days. After the culture, the number of lactic acid bacteria was measured using the GAM agar medium “Nissui”. Soy sauce to which licoricidin was not added was used as a control group, and the antimicrobial activity was evaluated in comparison with the number of lactic acid bacteria in the control group. The evaluation was performed using the same criterion as in Test Example 4.
structure (smiles),measurement,setting,value
"COc1c(CC=C(C)C)c(O)cc2c1C[C@H](c1ccc(O)c(CC=C(C)C)c1O)CO2 [Licoricidin, 4-[(R)-7-hydroxy-5-methoxy-6-(3-methyl-2-butenyl)chroman-3-yl]-2-(3-methyl-2-butenyl)-1,3-benzenediol]",Antimicrobial activity,"pH 4.2, alcohol 0% (v/v), licoricidin 1 ppm",B (The bacterial count decreases to 10% or more and less than 50% of the bacterial count of the control group.)
same,Antimicrobial activity,"pH 4.2, alcohol 0% (v/v), licoricidin 5 ppm",A (The bacterial count decreases to less than 10% of the bacterial count of the control group.)
same,Antimicrobial activity,"pH 4.2, alcohol 0% (v/v), licoricidin 10 ppm",A (The bacterial count decreases to less than 10% of the bacterial count of the control group.)
same,Antimicrobial activity,"pH 4.2, alcohol 0% (v/v), licoricidin 25 ppm",A (The bacterial count decreases to less than 10% of the bacterial count of the control group.)
same,Antimicrobial activity,"pH 4.2, alcohol 0% (v/v), licoricidin 50 ppm",A (The bacterial count decreases to less than 10% of the bacterial count of the control group.)
same,Antimicrobial activity,"pH 4.2, alcohol 5% (v/v), licoricidin 1 ppm",C (The bacterial count decreases to 50% or more and less than 100% of the bacterial count of control group.)
same,Antimicrobial activity,"pH 4.2, alcohol 5% (v/v), licoricidin 5 ppm",A (The bacterial count decreases to less than 10% of the bacterial count of the control group.)
same,Antimicrobial activity,"pH 4.2, alcohol 5% (v/v), licoricidin 10 ppm",A (The bacterial count decreases to less than 10% of the bacterial count of the control group.)
same,Antimicrobial activity,"pH 4.2, alcohol 5% (v/v), licoricidin 25 ppm",A (The bacterial count decreases to less than 10% of the bacterial count of the control group.)
same,Antimicrobial activity,"pH 4.2, alcohol 5% (v/v), licoricidin 50 ppm",A (The bacterial count decreases to less than 10% of the bacterial count of the control group.)
same,Antimicrobial activity,"pH 4.6, alcohol 0% (v/v), licoricidin 1 ppm",D
same,Antimicrobial activity,"pH 4.6, alcohol 0% (v/v), licoricidin 5 ppm",D
same,Antimicrobial activity,"pH 4.6, alcohol 0% (v/v), licoricidin 10 ppm",A (The bacterial count decreases to less than 10% of the bacterial count of the control group.)
same,Antimicrobial activity,"pH 4.6, alcohol 0% (v/v), licoricidin 25 ppm",A (The bacterial count decreases to less than 10% of the bacterial count of the control group.)
same,Antimicrobial activity,"pH 4.6, alcohol 0% (v/v), licoricidin 50 ppm",A (The bacterial count decreases to less than 10% of the bacterial count of the control group.)
same,Antimicrobial activity,"pH 4.6, alcohol 5% (v/v), licoricidin 1 ppm",B (The bacterial count decreases to 10% or more and less than 50% of the bacterial count of the control group.)
same,Antimicrobial activity,"pH 4.6, alcohol 5% (v/v), licoricidin 5 ppm",A (The bacterial count decreases to less than 10% of the bacterial count of the control group.)
same,Antimicrobial activity,"pH 4.6, alcohol 5% (v/v), licoricidin 10 ppm",A (The bacterial count decreases to less than 10% of the bacterial count of the control group.)
same,Antimicrobial activity,"pH 4.6, alcohol 5% (v/v), licoricidin 25 ppm",A (The bacterial count decreases to less than 10% of the bacterial count of the control group.)
same,Antimicrobial activity,"pH 4.6, alcohol 5% (v/v), licoricidin 50 ppm",A (The bacterial count decreases to less than 10% of the bacterial count of the control group.)
same,Antimicrobial activity,"pH 5.0, alcohol 0% (v/v), licoricidin 1 ppm",B (The bacterial count decreases to 10% or more and less than 50% of the bacterial count of the control group.)
same,Antimicrobial activity,"pH 5.0, alcohol 0% (v/v), licoricidin 5 ppm",A (The bacterial count decreases to less than 10% of the bacterial count of the control group.)
same,Antimicrobial activity,"pH 5.0, alcohol 0% (v/v), licoricidin 10 ppm",A (The bacterial count decreases to less than 10% of the bacterial count of the control group.)
same,Antimicrobial activity,"pH 5.0, alcohol 0% (v/v), licoricidin 25 ppm",A (The bacterial count decreases to less than 10% of the bacterial count of the control group.)
same,Antimicrobial activity,"pH 5.0, alcohol 0% (v/v), licoricidin 50 ppm",A (The bacterial count decreases to less than 10% of the bacterial count of the control group.)
same,Antimicrobial activity,"pH 5.0, alcohol 5% (v/v), licoricidin 1 ppm",C (The bacterial count decreases to 50% or more and less than 100% of the bacterial count of control group.)
same,Antimicrobial activity,"pH 5.0, alcohol 5% (v/v), licoricidin 5 ppm",A (The bacterial count decreases to less than 10% of the bacterial count of the control group.)
same,Antimicrobial activity,"pH 5.0, alcohol 5% (v/v), licoricidin 10 ppm",A (The bacterial count decreases to less than 10% of the bacterial count of the control group.)
same,Antimicrobial activity,"pH 5.0, alcohol 5% (v/v), licoricidin 25 ppm",A (The bacterial count decreases to less than 10% of the bacterial count of the control group.)
same,Antimicrobial activity,"pH 5.0, alcohol 5% (v/v), licoricidin 50 ppm",A (The bacterial count decreases to less than 10% of the bacterial count of the control group.)
same,Antimicrobial activity,"pH 5.4, alcohol 0% (v/v), licoricidin 1 ppm",B (The bacterial count decreases to 10% or more and less than 50% of the bacterial count of the control group.)
same,Antimicrobial activity,"pH 5.4, alcohol 0% (v/v), licoricidin 5 ppm",A (The bacterial count decreases to less than 10% of the bacterial count of the control group.)
same,Antimicrobial activity,"pH 5.4, alcohol 0% (v/v), licoricidin 10 ppm",A (The bacterial count decreases to less than 10% of the bacterial count of the control group.)
same,Antimicrobial activity,"pH 5.4, alcohol 0% (v/v), licoricidin 25 ppm",A (The bacterial count decreases to less than 10% of the bacterial count of the control group.)
same,Antimicrobial activity,"pH 5.4, alcohol 0% (v/v), licoricidin 50 ppm",A (The bacterial count decreases to less than 10% of the bacterial count of the control group.)
same,Antimicrobial activity,"pH 5.4, alcohol 5% (v/v), licoricidin 1 ppm",C (The bacterial count decreases to 50% or more and less than 100% of the bacterial count of control group.)
same,Antimicrobial activity,"pH 5.4, alcohol 5% (v/v), licoricidin 5 ppm",A (The bacterial count decreases to less than 10% of the bacterial count of the control group.)
same,Antimicrobial activity,"pH 5.4, alcohol 5% (v/v), licoricidin 10 ppm",A (The bacterial count decreases to less than 10% of the bacterial count of the control group.)
same,Antimicrobial activity,"pH 5.4, alcohol 5% (v/v), licoricidin 25 ppm",A (The bacterial count decreases to less than 10% of the bacterial count of the control group.)
same,Antimicrobial activity,"pH 5.4, alcohol 5% (v/v), licoricidin 50 ppm",A (The bacterial count decreases to less than 10% of the bacterial count of the control group.)
same,Antimicrobial activity,"pH 5.8, alcohol 0% (v/v), licoricidin 1 ppm",D
same,Antimicrobial activity,"pH 5.8, alcohol 0% (v/v), licoricidin 5 ppm",A (The bacterial count decreases to less than 10% of the bacterial count of the control group.)
same,Antimicrobial activity,"pH 5.8, alcohol 0% (v/v), licoricidin 10 ppm",A (The bacterial count decreases to less than 10% of the bacterial count of the control group.)
same,Antimicrobial activity,"pH 5.8, alcohol 0% (v/v), licoricidin 25 ppm",A (The bacterial count decreases to less than 10% of the bacterial count of the control group.)
same,Antimicrobial activity,"pH 5.8, alcohol 0% (v/v), licoricidin 50 ppm",A (The bacterial count decreases to less than 10% of the bacterial count of the control group.)
same,Antimicrobial activity,"pH 5.8, alcohol 5% (v/v), licoricidin 1 ppm",D
same,Antimicrobial activity,"pH 5.8, alcohol 5% (v/v), licoricidin 5 ppm",D
same,Antimicrobial activity,"pH 5.8, alcohol 5% (v/v), licoricidin 10 ppm",A (The bacterial count decreases to less than 10% of the bacterial count of the control group.)
same,Antimicrobial activity,"pH 5.8, alcohol 5% (v/v), licoricidin 25 ppm",A (The bacterial count decreases to less than 10% of the bacterial count of the control group.)
same,Antimicrobial activity,"pH 5.8, alcohol 5% (v/v), licoricidin 50 ppm",A (The bacterial count decreases to less than 10% of the bacterial count of the control group.)
